{"source": "ChEMBL document CHEMBL3217455", "about": "“Peptides: minimal drug surrogates to interrogate and interfere with protein function” (Medchemcomm, 2013)", "target": "T1, Rhombotin-2 (Homo sapiens, UniProt P25791)", "T1 sequence (P25791 whole entry)": "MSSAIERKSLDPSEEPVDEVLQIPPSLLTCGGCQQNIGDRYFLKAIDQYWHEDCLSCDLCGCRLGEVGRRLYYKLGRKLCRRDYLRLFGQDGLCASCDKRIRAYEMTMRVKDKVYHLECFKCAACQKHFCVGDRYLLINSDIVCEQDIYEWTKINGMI", "assay": "Binding affinity to GST-tagged LMO2 (unknown origin) by surface plasmon resonance analysis", "note": "Where a SMILES comes first, the peptide text is derived from it.", "data": [{"smiles": "CC[C@H](C)[C@H](NC(=O)[C@@H](NC(=O)[C@H](Cc1cnc[nH]1)NC(=O)[C@H](CC(C)C)NC(=O)[C@H](CCCNC(=N)N)NC(=O)[C@H](CO)NC(=O)[C@H](CCC(N)=O)NC(=O)[C@@H](N)CO)[C@@H](C)O)C(=O)N[C@@H](CC(C)C)C(=O)N[C@@H](CS)C(=O)N[C@@H](Cc1cnc[nH]1)C(=O)N[C@@H](CCC(=O)O)C(=O)N[C@@H](CS)C(=O)N[C@H](C(=O)N[C@H](C(=O)N[C@@H](CO)C(=O)N[C@@H](Cc1ccccc1)C(=O)N[C@@H](CC(C)C)C(=O)N[C@@H](CO)C(=O)N[C@@H](CC(C)C)C(=O)O)[C@@H](C)O)C(C)C", "note": "(H-SQSRLHTILCHECVTSFLSL-OH)", "values": [{"measurement": "Kd", "result": 29, "unit": "nM"}]}]}
